The record followed here is patent US20240043420A1, “7-AZAINDOLE COMPOUNDS FOR INHIBITION OF BCR-ABL TYROSINE KINASES” (EnLiven Therapeutics, Inc., priority 2020, published 2024).

The subject of one assay is K562 cells. The assay is described as follows: K562 cell proliferation assay (CellTiter-Glo). It counts as cell-based. As to conditions: Homo sapiens, K562, 72 h, CellTiter-Glo viability, read-out: Cell Line (IC50, nM) K562. A digest of the protocol: (§1)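 Cells in IMDM/10% FBS seeded at 2,000 (K562) or 1,500 (HL60) per well, exposed to serially diluted compounds for 72 h at 37 °C, 5% CO2. Viability by CellTiter-Glo luminescence, normalized between DMSO (high) and cell-free media (low) controls.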
(ATP-based viability assays read luminescence as a measure of living cells.)

Another assay deals with HL60 cells. The assay is described as follows: HL60 cell proliferation assay (CellTiter-Glo). It counts as cell-based. As to conditions: Homo sapiens, HL-60, 72 h, CellTiter-Glo viability, read-out: Cell Line (IC50, nM) HL60. A digest of the protocol:
as §1

The next assay deals with T1, ABL1 (Homo sapiens, UniProt P00519).
T1 construct: purchased Carna Biosciences
Description: Luminescence-based ABL kinase assay (ADP-Glo, 300 μM ATP). It counts as biochemical. In short, it runs like this: (§2)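 ABL1 (3.325 nM in the enzyme solution) was preincubated with compound for 30 min at RT in HEPES pH 7.5 buffer with MgCl2, EGTA, DTT, BSA and Brij-35. Adding Peptide 2 and ATP (6 μM and 1.2 mM in the start solution) began a 90 min RT reaction. ADP-Glo luminescence gave % activity and IC50.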
A general note: In ADP-Glo the light output rises with the ADP produced.

The target of a further assay is ABL1 (T315I) (Homo sapiens, UniProt P00519, T315I). The assay is described as follows: Luminescence-based ABL kinase assay (ADP-Glo, 300 μM ATP), T315I mutant. It counts as biochemical. In short, it runs like this: as §2
For a further assay, the system named is pCRKL in K562 cells. Description: pCRKL ELISA assay in K562 cells. The format is cell-based. The note with it: Homo sapiens, 1.5 h, 90 minutes incubation, read-out: PCRKL ELISA, Cell Line IC50 (nM) K562. The method, then: K562 or Ba/F3 ABL T315I cells (2.0*10^5 cells/100 μl/well) were seeded in 96 well (Corning, cat #3799). Compounds were dissolved in DMSO, serially diluted in DMSO and then were added, mixed, and incubated for 90 minutes at 37° C., 5% CO2. Following the 90-minute incubation, plates were centrifuged for 5 min at 3000 RPM and supernatant was removed from each well. Cells were washed 3 times with 150 μl PBS prior to addition of 100 μl cell RIPA lysis buffer (Boston BioProducts, cat #BP-115D) supplied with 1×complete ULTRA cocktail inhibitor (Roche, 05892791001) and 1×PhosSTOP Phosphatase Inhibitor Cocktail Tablets (Roche, 04906837001). Cells were incubated with lysis buffer for 1 hour at 4° C. prior to storage at −80 C.
A capture antibody able to detect phosphorylated and non-phosphorylated CRKL (R&D Systems, cat #AF5127) was added to Meso Scale Discovery (MSD) standard bind plates (MSD, cat #L15XA-3) at 5 ug/mL and incubated at 4° C. overnight. The next day, plates were washed with PBS+0.05% Tween20 (PBST) and 150 μl of 5% BSA blocking solution was added for 1 hour at room temperature with shaking. Plates were washed with PBST. Lysates were thawed and 30 μl of lysate was added to the MSD plates and incubated for 2 hours at room temperature with shaking. MSD plates were washed with PBST and 30 μl of a detection antibody that binds phosphorylated pCRKL (R&D Systems, cat #MAB6910) was added at 1 μg/mL to each well. Plates were incubated for 1 hour at room temperature with shaking. Plates were washed with PBST prior to addition of 30 μl of a sulfo tagged goat anti mouse detection antibody (MSD cat #R32AC-1). Plates were incubated for 1 hour at room temperature with shaking. Plates were washed with PBST prior to addition of 150 ul of 1×MSD read buffer T (MSD, cat 4R92TC-2). Electrochemiluminescence (ECLU) was read on an MSD plate reader (Meso Scale Discovery). The remaining activity by calculated as follows: 00 Relative activity=100×(ELCUsample−ECLULC)/(ECLUHC−ECLULC). The low and high controls (LC/HC) are generated from lysate from wells without cells or with cells treated with 0.1% DMSO, respectively. IC50 values were calculated using XLFit software using a nonlinear regression model with a sigmoidal dose response and are shown in Table 4 and Table 5 below.
Background: An ELISA detects its analyte on a solid surface through an enzyme-linked reagent.

Bounds are passed on as bounds.

The term IC50 denotes the concentration that gives 50% inhibition. As to `COc1ccccc1-c1c[nH]c2nc(NC(=O)[C@@H]3C[C@@H]3F)ccc12` [Compound 3, (1S,2S)-2-fluoro-N-(3-(2-methoxyphenyl)-1H-pyrrolo[2,3-b]pyridin-6-yl)cyclopropane-1-carboxamide], the IC50 in the assay with K562 cells was 80.3 nM; with HL60 cells, above 10000 nM; at ABL1 it was 8.17 nM; against ABL1 (T315I) it was 0.896 nM; in the assay on pCRKL in K562 cells it was 174 nM.
The like results for `COc1c(-c2c[nH]c3nc(NC(=O)C4CC4)ccc23)ccc2[nH]cnc12` [Compound 15, N-[3-(4-methoxy-1H-1,3-benzodiazol-5-yl)-1H-pyrrolo[2,3-b]pyridin-6-yl]cyclopropanecarboxamide] were, in that order, 181 nM, 1710 nM, 12.1 nM, 2.78 nM and 468 nM.
`COc1ncccc1-c1c[nH]c2nc(NC(=O)[C@H]3C[C@H]3F)ccc12` [Compound 26, (1R,2R)-2-fluoro-N-(3-(2-methoxypyridin-3-yl)-1H-pyrrolo[2,3-b]pyridin-6-yl)cyclopropane-1-carboxamide]: the IC50 was 220 nM in the assay with K562 cells; above 10000 nM with HL60 cells; 62.9 nM at ABL1; 68.4 nM at ABL1 (T315I); 680 nM with pCRKL in K562 cells.
As for `COc1ccccc1-c1c[nH]c2nc(NC(=O)NCCN3CCN(C)CC3)ccc12` [Compound 42, 3-[3-(2-methoxyphenyl)-1H-pyrrolo[2,3-b]pyridin-6-yl]-1-[2-(4-methylpiperazin-1-yl)ethyl]urea], the 50% inhibitory concentration (IC50) with K562 cells was 254 nM; with HL60 cells, above 10000 nM; against ABL1, 45.4 nM; against ABL1 (T315I) it was 12.7 nM; with pCRKL in K562 cells, 88.3 nM.
For `COc1ccccc1-c1n[nH]c2nc(NC(=O)C3CC3)ccc12` [Compound 44, N-[3-(2-methoxyphenyl)-1H-pyrazolo[3,4-b]pyridin-6-yl]cyclopropanecarboxamide], the half-inhibitory concentration (IC50) was 151 nM in the assay on K562 cells; above 10000 nM with HL60 cells; 23.1 nM against ABL1; 39.8 nM at ABL1 (T315I); 275 nM in the assay with pCRKL in K562 cells.
With `CCOc1ncccc1-c1c[nH]c2nc(NC(=O)C3CC3)ccc12` [Compound 47, N-[3-(2-ethoxypyridin-3-yl)-1H-pyrrolo[2,3-b]pyridin-6-yl]cyclopropanecarboxamide], the half-maximal inhibitory concentration (IC50) was 292 nM in the assay with K562 cells; above 10000 nM in the assay with HL60 cells; 7.47 nM against ABL1; 0.705 nM against ABL1 (T315I); 685 nM with pCRKL in K562 cells.
For the compound `COc1cc2[nH]cnc2cc1-c1c[nH]c2nc(NC(=O)[C@@H]3C[C@@H]3F)ccc12` [Compound 49, (1S,2S)-2-fluoro-N-[3-(6-methoxy-1H-1,3-benzodiazol-5-yl)-1H-pyrrolo[2,3-b]pyridin-6-yl]cyclopropane-1-carboxamide], the IC50 is 295 nM in the assay on K562 cells; above 10000 nM with HL60 cells; 4.33 nM against ABL1; 3.04 nM at ABL1 (T315I); 585 nM in the assay on pCRKL in K562 cells.
For `COc1cc2[nH]ncc2cc1-c1c[nH]c2nc(NC(=O)[C@@H]3C[C@@H]3F)ccc12` [Compound 50, (1S,2S)-2-fluoro-N-[3-(6-methoxy-1H-indazol-5-yl)-1H-pyrrolo[2,3-b]pyridin-6-yl]cyclopropane-1-carboxamide], the IC50 is 120 nM in the assay on K562 cells; above 10000 nM in the assay with HL60 cells; 3.9 nM against ABL1; 2.51 nM against ABL1 (T315I); 151 nM with pCRKL in K562 cells.
On to `COc1c(-c2c[nH]c3nc(NC(=O)[C@H]4C[C@H]4F)ccc23)ccc2[nH]cnc12` [Compound 51, (1R,2R)-2-fluoro-N-[3-(4-methoxy-1H-1,3-benzodiazol-5-yl)-1H-pyrrolo[2,3-b]pyridin-6-yl]cyclopropane-1-carboxamide], for which the concentration for half-maximal inhibition (IC50) was 668 nM in the assay with K562 cells; above 10000 nM with HL60 cells; 15.4 nM on ABL1; 4.41 nM against ABL1 (T315I); 1350 nM with pCRKL in K562 cells.
Turning to `COc1cc2[nH]cnc2cc1-c1c[nH]c2nc(NC(=O)[C@H]3C[C@H]3F)ccc12` [Compound 52, (1R,2R)-2-fluoro-N-[3-(6-methoxy-1H-1,3-benzodiazol-5-yl)-1H-pyrrolo[2,3-b]pyridin-6-yl]cyclopropane-1-carboxamide], the half-inhibitory concentration (IC50) in the assay on K562 cells was 829 nM; with HL60 cells, above 10000 nM; on ABL1, 8.95 nM; against ABL1 (T315I), 13.7 nM; in the assay on pCRKL in K562 cells it was 3120 nM.
On to `COc1cc2[nH]ncc2cc1-c1c[nH]c2nc(NC(=O)[C@H]3C[C@H]3F)ccc12` [Compound 53, (1R,2R)-2-fluoro-N-[3-(6-methoxy-1H-indazol-5-yl)-1H-pyrrolo[2,3-b]pyridin-6-yl]cyclopropane-1-carboxamide], for which the concentration for half-maximal inhibition (IC50) was 267 nM with K562 cells; 3110 nM in the assay with HL60 cells; 6.92 nM on ABL1; 5.63 nM against ABL1 (T315I); 584 nM with pCRKL in K562 cells.
Regarding `O=C(Nc1ccc2c(-c3ccc4nccn4c3)c[nH]c2n1)C1CC1` [Compound 56, N-(3-(imidazo[1,2-a]pyridin-6-yl)-1H-pyrrolo[2,3-b]pyridin-6-yl)cyclopropanecarboxamide], the IC50 in the assay with K562 cells stood at 183 nM; in the assay with HL60 cells it was 120 nM; at ABL1, 30.3 nM; against ABL1 (T315I) it was 53.5 nM; in the assay with pCRKL in K562 cells it was 745 nM.
Turning to `COc1ncnc(OC)c1-c1c[nH]c2nc(NC(=O)NCCN3CCNCC3)ccc12` [Compound 138, 3-[3-(4,6-dimethoxypyrimidin-5-yl)-1H-pyrrolo[2,3-b]pyridin-6-yl]-1-[2-(piperazin-1-yl)ethyl]urea], the IC50 in the assay with K562 cells is 527 nM; in the assay with HL60 cells it was above 10000 nM; on ABL1 it was 51.2 nM; against ABL1 (T315I) it was 140 nM.
As for `COc1cc2ncsc2cc1-c1c[nH]c2nc(NC(=O)NCCN3CCNCC3)ccc12` [Compound 139, 3-[3-(5-methoxy-1,3-benzothiazol-6-yl)-1H-pyrrolo[2,3-b]pyridin-6-yl]-1-[2-(piperazin-1-yl)ethyl]urea; bis(formic acid)], the IC50 was 1380 nM in the assay with K562 cells, above 10000 nM in the assay on HL60 cells, 18.6 nM against ABL1 and 16.8 nM against ABL1 (T315I).
The matching figures for `COc1nc(C)nc(OC)c1-c1c[nH]c2nc(NC(=O)[C@@H]3C[C@@H]3F)ccc12` [Compound 142, (1S,2S)—N-(3-(4,6-dimethoxy-2-methylpyrimidin-5-yl)-1H-pyrrolo[2,3-b]pyridin-6-yl)-2-fluorocyclopropane-1-carboxamide]: 34.5 nM, above 10000 nM, 14.6 nM and 14.3 nM.
The like results for `COc1ncnc(OC2CC2)c1-c1c[nH]c2nc(NC(=O)[C@@H]3C[C@@H]3F)ccc12` [Compound 153, (1S,2S)—N-[3-(4-cyclopropoxy-6-methoxypyrimidin-5-yl)-1H-pyrrolo[2,3-b]pyridin-6-yl]-2-fluorocyclopropane-1-carboxamide] were, in that order, 8.67 nM, above 10000 nM, 4.65 nM and 1.37 nM.
The like results for `COc1nccc(OC2CC2)c1-c1c[nH]c2nc(NC(=O)[C@@H]3C[C@H]3OCCN(C)C)ccc12` [Compound 253] were, in that order, 30.8 nM, above 10000 nM, 6.71 nM and 8.81 nM.
